In PubChem BioAssay AID256 (DTP/NCI, 2004) one finds T/C data, which are given here for 22 compounds.

This experiment relates to CD2F1 mice, L1210 leukemia ip, survival T/C. Kind of experiment: NCI In Vivo Anticancer Drug Screen. Data for tumor model L1210 Leukemia (intraperitoneal) in CD2F1 (CDF1) mice. As to conditions: higher = longer survival. The essentials: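 Implant tumor; dose compound or vehicle; measure endpoint in both groups; report treated divided by control.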
Where [1] appears, read: endpoint: mean survival time, dose: 100.0 mg/kg/injection, schedule: Q01DX009 (ip), vehicle: saline with Tween-80.
Where [2] appears, read: endpoint: mean survival time, dose: 200.0 mg/kg/injection, schedule: Q01DX009 (ip), vehicle: saline with Tween-80.
The mark [3] stands for this setting: endpoint: mean survival time, dose: 400.0 mg/kg/injection, schedule: Q01DX009 (ip), vehicle: saline with Tween-80.
The mark [4] stands for this setting: endpoint: mean survival time, dose: 100.0 mg/kg/injection, schedule: Q04DX003 (ip), vehicle: saline with Tween-80.
Setting [5] is: endpoint: mean survival time, dose: 200.0 mg/kg/injection, schedule: Q04DX003 (ip), vehicle: saline with Tween-80.
Setting [6] is: endpoint: mean survival time, dose: 100.0 mg/kg/injection, schedule: Q04DX002 (ip), vehicle: saline.
Setting [7] is: endpoint: mean survival time, dose: 100.0 mg/kg/injection, schedule: Q01DX001 (ip), vehicle: saline with Tween-80.
The mark [8] stands for this setting: endpoint: mean survival time, dose: 200.0 mg/kg/injection, schedule: Q01DX001 (ip), vehicle: saline with Tween-80.
Where [9] appears, read: endpoint: mean survival time, dose: 400.0 mg/kg/injection, schedule: Q01DX001 (ip), vehicle: saline with Tween-80.
Setting [10] is: endpoint: mean survival time, dose: 100.0 mg/kg/injection, schedule: Q04DX003 (ip), vehicle: saline.
[11] abbreviates: endpoint: mean survival time, dose: 200.0 mg/kg/injection, schedule: Q04DX003 (ip), vehicle: saline.
Setting [12] is: endpoint: mean survival time, dose: 100.0 mg/kg/injection, schedule: Q04DX002 (ip), vehicle: saline with Tween-80.
Where [13] appears, read: endpoint: mean survival time, dose: 200.0 mg/kg/injection, schedule: Q04DX002 (ip), vehicle: saline with Tween-80.
[14] abbreviates: endpoint: mean survival time, dose: 400.0 mg/kg/injection, schedule: Q04DX003 (ip), vehicle: saline with Tween-80.
Setting [15] is: endpoint: mean survival time, dose: 25.0 mg/kg/injection, schedule: Q04DX003 (ip), vehicle: saline with Tween-80.
The mark [16] stands for this setting: endpoint: mean survival time, dose: 12.5 mg/kg/injection, schedule: Q01DX009 (ip), vehicle: saline with Tween-80.
Where [17] appears, read: endpoint: mean survival time, dose: 50.0 mg/kg/injection, schedule: Q01DX009 (ip), vehicle: saline with Tween-80.

Several values for one entry are separate records, joined by “and”; a condition that tells them apart may be missing. Equal values may be shown once. Inconclusive results and toxic doses are left out.

Turning to `COC(=O)CCC(=O)Nc1ccccc1C(C)=O`, the T/C is, setting by setting: under setting [1], 101 % of control; under setting [2], 104 % of control; under setting [3], 106 % of control.
In the case of `COc1ccc(NC2=NCCS2)cc1`, the T/C by setting is: under setting [4], 94 % of control; under setting [5], 101 % of control.
As to `COc1ccc(OC)c(OC)c1CC(C)N` (configuration not stated), the T/C (endpoint: mean survival time, dose: 25.0 mg/kg/injection, schedule: Q04DX002 (ip), vehicle: saline) was 108 % of control; the T/C (endpoint: mean survival time, dose: 50.0 mg/kg/injection, schedule: Q04DX002 (ip), vehicle: saline) was 97 % of control; the T/C under setting [6] is 91 % of control and 97 % of control.
With `c1ccc(C2=C(c3ccccc3)OCCO2)cc1`, the T/C under setting [7] is 110 % of control, the T/C under setting [8] is 89 % of control and the T/C under setting [9] was 92 % of control.
Consider `O=P(O)(O)CCc1ccccc1`, for which the T/C by setting is: (endpoint: mean survival time, dose: 50.0 mg/kg/injection, schedule: Q04DX003 (ip), vehicle: saline) 95 % of control; under setting [10], 90 % of control; under setting [11], 96 % of control.
With `SCc1ccccc1`, the T/C is 110 % of control under setting [7], 98 % of control under setting [8] and 105 % of control under setting [9].
Consider `CS(=O)(=O)OCCN(CCOS(C)(=O)=O)c1cccc([N+](=O)[O-])c1`, for which the T/C was 96 % of control (endpoint: mean survival time, dose: 8.0 mg/kg/injection, schedule: Q01DX001 (ip), vehicle: saline); 113 % of control (endpoint: mean survival time, dose: 10.0 mg/kg/injection, schedule: Q01DX010 (ip), vehicle: saline); 103 % of control (endpoint: mean survival time, dose: 16.0 mg/kg/injection, schedule: Q01DX001 (ip), vehicle: saline); 110 % of control (endpoint: mean survival time, dose: 32.0 mg/kg/injection, schedule: Q01DX001 (ip), vehicle: saline); 114 % of control and 108 % of control (endpoint: mean survival time, dose: 64.0 mg/kg/injection, schedule: Q01DX001 (ip), vehicle: saline); 118 % of control (endpoint: mean survival time, dose: 128.0 mg/kg/injection, schedule: Q01DX001 (ip), vehicle: saline). Further, the T/C was 119 % of control (endpoint: mean survival time, dose: 256.0 mg/kg/injection, schedule: Q01DX001 (ip), vehicle: saline) and 97 % of control (endpoint: mean survival time, dose: 300.0 mg/kg/injection, schedule: Q01DX010 (ip), vehicle: saline).
For the compound `Cc1cccc(N/N=C2\CCSc3ccccc32)c1`, the T/C under setting [7] is 100 % of control, the T/C under setting [8] was 100 % of control and the T/C under setting [9] was 103 % of control.
In the case of `COc1ccc2c(c1)C(=O)C(Br)CC2` (configuration not stated), the T/C is, setting by setting: under setting [7], 101 % of control; under setting [1], 98 % of control and 101 % of control; under setting [12], 101 % of control and 102 % of control; under setting [4], 108 % of control; under setting [8], 93 % of control; under setting [2], 97 % of control and 98 % of control. Also, the T/C is 100 % of control and 104 % of control under setting [13]; 97 % of control under setting [5]; 95 % of control under setting [9]; 103 % of control and 104 % of control (endpoint: mean survival time, dose: 400.0 mg/kg/injection, schedule: Q04DX002 (ip), vehicle: saline with Tween-80); 110 % of control under setting [14].
As for `CC1=C2C3OC(=O)C(C)C3CCC2(C)C=CC1=O` (configuration not stated), the T/C is, setting by setting: under setting [12], 116 % of control; under setting [13], 116 % of control.
Take `NC(=S)NC(=S)Nc1ccc(Cl)cc1`: the T/C (endpoint: mean survival time, dose: 25.0 mg/kg/injection, schedule: Q04DX002 (ip), vehicle: saline with Tween-80) was 98 % of control; the T/C (endpoint: mean survival time, dose: 50.0 mg/kg/injection, schedule: Q04DX002 (ip), vehicle: saline with Tween-80) is 98 % of control; the T/C under setting [12] was 98 % of control.
Regarding `Cc1cccc(Br)[n+]1[O-]`, the T/C is 92 % of control under setting [10] and 101 % of control under setting [11].
Turning to `CC(=O)NCNC(C)=O`, the T/C is 100 % of control (endpoint: mean survival time, dose: 100.0 mg/kg/injection, schedule: Q01DX001 (ip), vehicle: saline); 93 % of control (endpoint: mean survival time, dose: 200.0 mg/kg/injection, schedule: Q01DX001 (ip), vehicle: saline); 100 % of control (endpoint: mean survival time, dose: 400.0 mg/kg/injection, schedule: Q01DX001 (ip), vehicle: saline).
For the compound `O=C1C=CC(=O)N1c1ccc(Cl)cc1Cl`, the T/C by setting is: (endpoint: mean survival time, dose: 12.5 mg/kg/injection, schedule: Q04DX003 (ip), vehicle: saline with Tween-80) 103 % of control; under setting [15], 100 % of control.
`CCOc1ccc2c(O)csc2c1`: the T/C was 90 % of control under setting [4], 91 % of control under setting [5] and 91 % of control under setting [14].
On to `O=C(Nc1ccccc1[N+](=O)[O-])Oc1ccccc1`, for which the T/C runs as follows: (endpoint: mean survival time, dose: 75.0 mg/kg/injection, schedule: Q04DX002 (ip), vehicle: saline with Tween-80) 96 % of control; (endpoint: mean survival time, dose: 150.0 mg/kg/injection, schedule: Q04DX002 (ip), vehicle: saline with Tween-80) 96 % of control; (endpoint: mean survival time, dose: 300.0 mg/kg/injection, schedule: Q04DX002 (ip), vehicle: saline with Tween-80) 96 % of control.
Take `O=C1C=CN(C2OC(CO)C(O)C2O)C(=O)C1` (configuration not stated): the T/C is, setting by setting: (endpoint: mean survival time, dose: 6.25 mg/kg/injection, schedule: Q01DX009 (ip), vehicle: saline with Tween-80) 120 % of control; under setting [16], 124 % of control; (endpoint: mean survival time, dose: 75.0 mg/kg/injection, schedule: Q01DX005 (ip), vehicle: saline) 113 % of control; under setting [1], 102 % of control; (endpoint: mean survival time, dose: 150.0 mg/kg/injection, schedule: Q01DX005 (ip), vehicle: saline) 122 % of control; (endpoint: mean survival time, dose: 150.0 mg/kg/injection, schedule: Q01DX005 (iv), vehicle: saline) 124 % of control. Besides, the T/C reads like this: under setting [2], 113 % of control; (endpoint: mean survival time, dose: 300.0 mg/kg/injection, schedule: Q01DX005 (ip), vehicle: saline) 101 % of control; (endpoint: mean survival time, dose: 300.0 mg/kg/injection, schedule: Q01DX005 (iv), vehicle: saline) 116 % of control; under setting [3], 93 % of control; (endpoint: mean survival time, dose: 600.0 mg/kg/injection, schedule: Q01DX005 (ip), vehicle: saline) 119 % of control; (endpoint: median survival time, dose: 12.5 mg/kg/injection, schedule: Q01DX009 (ip), vehicle: saline) 121 % of control. Moreover, the T/C (endpoint: median survival time, dose: 25.0 mg/kg/injection, schedule: Q01DX009 (ip), vehicle: saline) is 172 % of control and the T/C (endpoint: median survival time, dose: 75.0 mg/kg/injection, schedule: Q01DX009 (ip), vehicle: saline) is 113 % of control.
`CCCCN1C(=O)C(=O)N(c2ccc(S(N)(=O)=O)cc2)C1=O`: the T/C by setting is: under setting [17], 100 % of control; under setting [1], 89 % of control.
As to `CCN1/C(=C/C=C/c2oc3ccc4ccccc4c3[n+]2CC)Oc2ccc3ccccc3c21`, the T/C runs as follows: (endpoint: mean survival time, dose: 9.5 mg/kg/injection, schedule: Q01DX001 (ip), vehicle: other) 104 % of control; (endpoint: mean survival time, dose: 19.0 mg/kg/injection, schedule: Q01DX001 (ip), vehicle: other) 112 % of control; (endpoint: mean survival time, dose: 38.0 mg/kg/injection, schedule: Q01DX001 (ip), vehicle: other) 118 % of control.
In the case of `NC(=O)C1(C(N)=O)CC1`, the T/C runs as follows: under setting [6], 108 % of control; (endpoint: mean survival time, dose: 200.0 mg/kg/injection, schedule: Q04DX002 (ip), vehicle: saline) 104 % of control; (endpoint: mean survival time, dose: 400.0 mg/kg/injection, schedule: Q04DX002 (ip), vehicle: saline) 100 % of control.
`Brc1ccc(-c2csc(Nc3nc(-c4ccc(Br)cc4)cs3)n2)cc1`: the T/C reads like this: under setting [16], 86 % of control; (endpoint: mean survival time, dose: 25.0 mg/kg/injection, schedule: Q01DX009 (ip), vehicle: saline with Tween-80) 96 % of control; under setting [15], 97 % of control; under setting [17], 96 % of control; (endpoint: mean survival time, dose: 50.0 mg/kg/injection, schedule: Q04DX003 (ip), vehicle: saline with Tween-80) 87 % of control; under setting [4], 88 % of control. In addition, the T/C under setting [14] is 92 % of control.
As for `CCOC(=O)C1=C(C)NC(C)=C(C(=O)OCC)C1c1ccc(OC)cc1`, the T/C is, setting by setting: under setting [1], 104 % of control; under setting [4], 97 % of control; under setting [2], 101 % of control; under setting [5], 94 % of control; under setting [3], 97 % of control; under setting [14], 92 % of control.
